For three molecules, DC50 results are on record in patent US20240383886A1, “Protein Tyrosine Phosphatase Degraders and Methods of Use Thereof” (CALICO LIFE SCIENCES LLC, priority 2019, published 2024).

Assay [1] addresses T1, PTPN2 (Homo sapiens, UniProt P17706).
T1 construct: expressed in transfected cells; host or cells: 293T (293T.109 HiBiT-PTPN2 line; parental 293T WT from ATCC)
T1 sequence (P17706 1-415): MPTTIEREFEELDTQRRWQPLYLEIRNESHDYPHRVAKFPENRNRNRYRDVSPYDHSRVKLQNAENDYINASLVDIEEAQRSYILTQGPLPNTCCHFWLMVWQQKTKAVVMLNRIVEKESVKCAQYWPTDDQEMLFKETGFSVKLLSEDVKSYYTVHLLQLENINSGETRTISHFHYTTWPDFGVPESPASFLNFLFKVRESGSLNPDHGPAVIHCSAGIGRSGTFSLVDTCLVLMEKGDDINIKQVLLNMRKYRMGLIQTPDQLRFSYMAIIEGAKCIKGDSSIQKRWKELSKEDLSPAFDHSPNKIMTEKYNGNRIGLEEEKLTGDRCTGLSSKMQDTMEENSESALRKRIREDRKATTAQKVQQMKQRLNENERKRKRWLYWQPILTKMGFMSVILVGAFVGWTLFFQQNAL
The experiment in a line: HiBiT-Degradation 293T.109 PTPN2 (Nano-Glo HiBiT Lytic Assay). The settings on record: 293T.109 (HiBiT-PTPN2) cells, 24.0 hours. The assay is classed as cell-based. A digest of the protocol:
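293T cells ectopically expressing N-terminally HiBiT-tagged PTPN2 were seeded at 5000 cells/well. They were treated with an 11-point half-log titration from 10 μM, in duplicate, for 24 hours at 37° C., 5% CO2. Remaining tagged PTPN2 was quantified by lytic HiBiT luminescence against untreated and no-reagent controls.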

The test system of assay [2] is PTPN2. Kind of assay: HiBiT-Degradation B16F10.4 PTPN2. As to conditions: B16F10.4 cells, 24.0 hours. The assay is classed as cell-based.

In the case of `Cn1c(=O)n(C2CCC(=O)NC2=O)c2ccc(C3CCN([C@H](CO)C(=O)Nc4ccc5c(F)c(N6CC(=O)NS6(=O)=O)c(O)cc5c4)CC3)cc21` (stereo partly drawn) [Example 183, (2R)—N-(6-(1,1-dioxido-4-oxo-1,2,5-thiadiazolidin-2-yl)-5-fluoro-7-hydroxynaphthalen-2-yl)-2-(4-(1-(2,6-dioxopiperidin-3-yl)-3-methyl-2-oxo-2,3-dihydro-1H-benzo[d]imidazol-5-yl)piperidin-1-yl)-3-hydroxypropanamide], the DC50 in assay [1] and in assay [2] was 0.01 to 0.05 µM in each case.
For `Cn1c(=O)n(C2CCC(=O)NC2=O)c2ccc(C3CCN([C@@H](CO)C(=O)Nc4ccc5c(F)c(N6CC(=O)NS6(=O)=O)c(O)cc5c4)CC3)cc21` (stereo partly drawn) [Example 184, (2S)—N-(6-(1,1-dioxido-4-oxo-1,2,5-thiadiazolidin-2-yl)-5-fluoro-7-hydroxynaphthalen-2-yl)-2-(4-(1-(2,6-dioxopiperidin-3-yl)-3-methyl-2-oxo-2,3-dihydro-1H-benzo[d]imidazol-5-yl)piperidin-1-yl)-3-hydroxypropanamide], the DC50 was in the range of 0.01 to 0.05 µM in assay [1] and 0.05 to 0.2 µM in assay [2].
For `Cc1cc(CC(=O)Nc2ccc3c(F)c(N4CC(=O)NS4(=O)=O)c(O)cc3c2)ccc1Nc1ccc2c(C3CCC(=O)NC3=O)nn(C)c2c1` (stereo not drawn) [Example 185, N-(6-(1,1-dioxido-4-oxo-1,2,5-thiadiazolidin-2-yl)-5-fluoro-7-hydroxynaphthalen-2-yl)-2-(4-((3-(2,6-dioxopiperidin-3-yl)-1-methyl-1H-indazol-6-yl)amino)-3-methylphenyl)acetamide] the same measures were 0.01 to 0.05 µM and 0.05 to 0.2 µM.

What is called DC50 is the midpoint of the concentration-degradation curve. The low end stands for a more potent degrader, the high end for a less potent degrader.
